Values after ≈ are worked out from the molar mass of the structure shown.
Assays:
Format in all cases: functional
[1] = Cytotoxicity against human melanoma cells after 72 hrs; conditions: Melanoma cell, read-out: ED50 (the source's name)
[2] = Cytotoxicity against human breast cancer cells after 72 hrs; conditions: Cancer cell lines, read-out: ED50 (the source's name)
P388 = assay: Cytotoxicity against mouse P388 cells after 48 hrs; conditions: P388, 48 h, read-out: ED50 (the source's name)
Pseudomonas aeruginosa = assay: Antimicrobial activity against Pseudomonas aeruginosa after 48 hrs by twofold serial dilution method
[3] = Cytotoxicity against human lung cancer cells after 72 hrs; conditions: Cancer cell lines, read-out: ED50 (the source's name)
Escherichia coli = assay: Antimicrobial activity against Escherichia coli after 48 hrs by twofold serial dilution method
Staphylococcus aureus = assay: Antimicrobial activity against Staphylococcus aureus ATCC 6538 after 24 hrs by twofold serial dilution method; conditions: ATCC 6538, 24 h
[4] = Cytotoxicity against human colon cancer cells after 72 hrs; conditions: Cancer cell lines, read-out: ED50 (the source's name)
[5] = test system: Mycolicibacterium smegmatis; assay: Antimicrobial activity against Mycobacterium smegmatis ATCC 607 after 48 hrs by twofold serial dilution method; conditions: ATCC 607, 48 h
KB = assay: Cytotoxicity against human KB cells after 72 hrs; conditions: read-out: ED50 (the source's name)
Bacillus subtilis = assay: Antimicrobial activity against Bacillus subtilis ATCC 6633 after 24 hrs by twofold serial dilution method; conditions: ATCC 6633, 24 h

| SMILES | EC50 [1] [µg/mL] | EC50 [2] [µg/mL] | EC50 (P388) [µg/mL] | MIC (Pseudomonas aeruginosa) [µg/mL] | EC50 [3] [µg/mL] | MIC (Escherichia coli) [µg/mL] | MIC (Staphylococcus aureus) [µg/mL] | EC50 [4] [µg/mL] | MIC [5] [µg/mL] | EC50 (KB) [µg/mL] | MIC (Bacillus subtilis) [µg/mL] |
| --- | --- | --- | --- | --- | --- | --- | --- | --- | --- | --- | --- |
| CCC(=O)C1=C(O)C(C)(C)C(O)=C(CC2=C(O)C(C)(C)C(O)=C(C(=O)CC)C2=O)C1=O | > 50 | > 50 | > 50 | > 100 | > 50 | > 100 | 50 (≈ 116 µM) | > 50 | 50 (≈ 116 µM) | > 50 | 12.5 (≈ 28.9 µM) |
| CC(=O)C1=C(O)C(C)(C)C(O)=C(CC2=C(O)C(C)(C)C(O)=C(C(C)=O)C2=O)C1=O | > 50 | > 50 | > 50 | > 100 | > 50 | > 100 | 100 (≈ 247 µM) | > 50 | 100 (≈ 247 µM) | > 50 | 50 (≈ 124 µM) |
| CCC(=O)C1=C(O)C(C)(C)C(O)=C(Cc2c(O)c3c(c(C(=O)CC)c2O)OC(C)(C)C=C3)C1=O [DRUMMONDIN A] | 8 (≈ 17 µM) | 3.4 (≈ 7.23 µM) | 2.1 (≈ 4.46 µM) | > 100 | 4.5 (≈ 9.56 µM) | > 100 | 1.56 (≈ 3.32 µM) | 6.6 (≈ 14 µM) | 1.56 (≈ 3.32 µM) | 4.5 (≈ 9.56 µM) | 0.78 (≈ 1.66 µM) |
| CCC(=O)C1=C(O)C(C)(C)C(O)=C(Cc2c(O)c3c(c(C(C)=O)c2O)OC(C)(C)C=C3)C1=O [DRUMMONDIN B] | 5 (≈ 11 µM) |  | 1.9 (≈ 4.16 µM) | > 100 | 7 (≈ 15.3 µM) | > 100 | 3.12 (≈ 6.83 µM) | 6.3 (≈ 13.8 µM) | 1.56 (≈ 3.42 µM) | 3.1 (≈ 6.79 µM) | 0.39 (≈ 0.854 µM) |
| CC(=O)C1=C(O)C(C)(C)C(O)=C(Cc2c(O)c3c(c(C(C)=O)c2O)OC(C)(C)C=C3)C1=O [DRUMMONDIN C] | 12 (≈ 27.1 µM) | 5.1 (≈ 11.5 µM) | 2.8 (≈ 6.33 µM) | > 100 | 8.7 (≈ 19.7 µM) | > 100 | 3.12 (≈ 7.05 µM) | 11 (≈ 24.9 µM) | 6.25 (≈ 14.1 µM) | 8.6 (≈ 19.4 µM) | 0.78 (≈ 1.76 µM) |
| CC(=O)C1=C(O)C(C)(CC=C(C)C)C(O)=C(Cc2c(O)c(CC=C(C)C)c(O)c(C(C)=O)c2O)C1=O (stereo not drawn) [DRUMMONDIN F] | > 50 | 21 (≈ 42.1 µM) | 21 (≈ 42.1 µM) | > 100 | 30 (≈ 60.2 µM) | > 100 | 0.78 (≈ 1.56 µM) | 42 (≈ 84.2 µM) | 1.56 (≈ 3.13 µM) | 18 (≈ 36.1 µM) | 0.78 (≈ 1.56 µM) |
| CN[C@@H]1[C@H](O[C@H]2[C@H](O[C@H]3[C@H](O)[C@@H](O)[C@H](N=C(N)N)[C@@H](O)[C@@H]3N=C(N)N)O[C@@H](C)[C@]2(O)C=O)O[C@@H](CO)[C@H](O)[C@H]1O [STREPTOMYCIN] |  |  |  |  |  |  | 6.25 (≈ 10.7 µM) |  | 3.12 (≈ 5.36 µM) |  | 0.78 (≈ 1.34 µM) |

— ChEMBL document CHEMBL1147281, “Antimicrobial and cytotoxic activity of rottlerin-type compounds from Hypericum drummondii” (1989)
